Laboratory results reported in US20250255847A1, “[…]s: Novel Drugs for Triple Negative Breast Cancer” (SIMMARON RSEARCH INC, priority 2024, published 2025).

Test system: MDA-MB-468 cells
Experiment: TUNEL assay in MDA-MB-468 cells
Assay type: cell-based, human
Conditions: 25 nM
Experimental: FIG. 11 illustrates an embodiment of the present invention and illustrates SIM-1 and SIM-2 induced apoptosis in MDA-MB-468 TNBC cells, but not HMEC control cells. MDA-MB-468 cells were treated with increasing doses of (A) SIM-1 and (B) SIM-2 for 48 hrs followed by lactate dehydrogenase (LDH) release assay in the supernatants. The result was offset with cell-bound LDH and presented as a percent of DMSO control as discussed under method section. Half-maximal cytotoxicity or CT50 analyses were performed plotting maximum response as an index of increasing doses of (C) SIM-1 and (D) SIM-2. AnnexinV (green) and propidium iodide (red) dual-labeling were performed to evaluate apoptotic response in MDA-MB-468 cells once treated with increasing doses of (E) SIM-1 and (F) SIM-2 for 24 hrs. […] (H) The number of TUNEL bodies were counted as a percent of 100 cresyl violet-stained blue cells. Ten independent images were counted for the quantification study. Similarly, SIM-2 was assessed for (I) TUNEL and (J) subsequent quantification analyses. […]
This example provides a representative experiment that studies if SIM-1 and SIM-2 promoted the death of TNBC cells. […] During apoptosis, phosphatidyl serine of the plasma membrane flips from the inner to the outer membrane which can be detected by Annexin V labeling, whereas PI stains the nucleus of a cell with compromised integrity of the plasma membrane. […]

CCOC(=O)c1c(NC(C)=O)sc2c(Cl)c(/C=N/O)ccc12 [SIM-2, ethyl 2-acetamido-7-chloro-6-(hydroxyiminomethyl)-1-benzothiophene-3-carboxylate]
TUNEL response: strongly induced

O=C(O)CCC(=O)NCc1csc2ccc(Cl)cc12 [SIM-1, 4-[(5-chloro-1-benzothiophen-3-yl)methylamino]-4-oxobutanoic acid]
TUNEL response: strongly induced
